pIC50: −log10 of the molar value. Calls of active or inactive are those of the source. The calls are words filed in the database; no cut-off is given here.

In data set [1] the target is T1, N-formyl peptide receptor 2 (Homo sapiens) (UniProt P25090).
T1 sequence (whole entry): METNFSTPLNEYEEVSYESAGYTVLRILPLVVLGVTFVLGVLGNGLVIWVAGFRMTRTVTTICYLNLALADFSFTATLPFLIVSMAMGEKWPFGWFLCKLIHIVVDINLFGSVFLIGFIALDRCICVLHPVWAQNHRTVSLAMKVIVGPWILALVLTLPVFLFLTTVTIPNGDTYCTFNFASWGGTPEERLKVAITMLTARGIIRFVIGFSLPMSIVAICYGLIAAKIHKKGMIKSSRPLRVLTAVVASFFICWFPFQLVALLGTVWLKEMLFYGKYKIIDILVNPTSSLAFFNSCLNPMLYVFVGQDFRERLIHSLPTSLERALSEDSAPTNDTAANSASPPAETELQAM
The experiment in a line: Agonist activity at ALX/FPR2 in human THP1 cells harboring NF-kB-Luc assessed as inhibition of LPS-induced NFkB signalling activation by measuring IL-1beta secretion at 10^-9 M pretreated for 30 mins followed by LPS stimulation for 24 hrs by electrochemiluminescence assay. Format: cell-based. More on the design: scale not given: the % may be the effect or the level left.

The target of data set [2] is T1, N-formyl peptide receptor 2 (Homo sapiens). Nature of the data set: Agonist activity at ALX/FPR2 in human THP1 cells harboring NF-kB-Luc assessed as inhibition of LPS-induced NFkB signalling activation by measuring IL-1beta secretion at 10^-7 M pretreated for 30 mins followed by LPS stimulation for 24 hrs by electrochemiluminescence assay. Format: cell-based. More on the design: scale not given: the % may be the effect or the level left.

Data set [3] has the same target. The experiment in a line: Agonist activity at ALX/FPR2 in human THP1 cells harboring NF-kB-Luc assessed as inhibition of LPS-induced NFkB signalling activation by measuring IL-12p70 secretion at 10^-7 M pretreated for 30 mins followed by LPS stimulation for 24 hrs by electrochemiluminescence assay. Format: cell-based. The arrangement: scale not given: the % may be the effect or the level left.

The target is the same in data set [4]. Nature of the data set: Agonist activity at ALX/FPR2 in human THP1 cells harboring NF-kB-Luc assessed as inhibition of LPS-induced NFkB signalling activation by measuring IFNgamma secretion at 10^-11 M pretreated for 30 mins followed by LPS stimulation for 24 hrs by electrochemiluminescence assay. Format: cell-based. More on the design: scale not given: the % may be the effect or the level left.

Data set [5] has the same target. The experiment in a line: Agonist activity at ALX/FPR2 in human THP1 cells harboring NF-kB-Luc assessed as inhibition of LPS-induced NFkB signalling activation by measuring IFNgamma secretion at 10^-9 M pretreated for 30 mins followed by LPS stimulation for 24 hrs by electrochemiluminescence assay. Format: cell-based. The arrangement: scale not given: the % may be the effect or the level left.

The target is the same in data set [6]. Nature of the data set: Agonist activity at ALX/FPR2 in human THP1 cells harboring NF-kB-Luc assessed as inhibition of LPS-induced NFkB signalling activation by measuring TNFalpha secretion at 10^-11 M pretreated for 30 mins followed by LPS stimulation for 24 hrs by electrochemiluminescence assay. The arrangement: scale not given: the % may be the effect or the level left. Format: cell-based.

For data set [7] the target is unchanged. The experiment in a line: Agonist activity at ALX/FPR2 in human THP1 cells harboring NF-kB-Luc assessed as inhibition of LPS-induced NFkB signalling activation by measuring TNFalpha secretion at 10^-7 M pretreated for 30 mins followed by LPS stimulation for 24 hrs by electrochemiluminescence assay. Format: cell-based. The arrangement: scale not given: the % may be the effect or the level left.

Data set [8] in a line: Cytotoxicity against mouse J774.1 cells assessed as cell viability by MTS assay relative to control. Format: cell-based. The note with it: read-out: Activity. A general note: Tetrazolium dyes change colour on reduction, which living cells bring about.
Data set [9] deals with T2, N-formyl peptide receptor 2 (Homo sapiens, UniProt P25090).
T2 sequence (P25090 whole entry): T1 sequence (whole entry)
Nature of the data set: Agonist activity at ALX/FPR2 in human THP1 cells harboring NF-kB-Luc assessed as inhibition of LPS-induced NFkB signalling activation by measuring reduction in IL-1beta secretion pretreated for 30 mins followed by LPS stimulation for 24 hrs by electrochemiluminescence assay. Format: cell-based. The following applies: read-out: IC50.

Data set [10] deals with T2, N-formyl peptide receptor 2. Nature of the data set: Agonist activity at ALX/FPR2 in human THP1 cells harboring NF-kB-Luc assessed as inhibition of LPS-induced NFkB signalling activation by measuring reduction in IL-6 secretion pretreated for 30 mins followed by LPS stimulation for 24 hrs by electrochemiluminescence assay. Format: cell-based. The note with it: read-out: IC50.

Data set [11] concerns the target T1, N-formyl peptide receptor 2 (Homo sapiens). Nature of the data set: Agonist activity at ALX/FPR2 (unknown origin) expressed in HEK293 cells co-expressing Galphaq assessed as induction of intracellular calcium accumulation at 0.01 nM to 100 nM by Fluo-4 dye based fluorescence spectrophotometric assay. Format: functional, cell-based. A general note: Calcium assays in cells follow changes in intracellular calcium, usually with a dye or a luminescent sensor.

The next data set has as its system HEK293. Nature of the data set: Induction of intracellular calcium accumulation in HEK293 cells at 0.01 nM to 100 nM by Fluo-4 dye based fluorescence spectrophotometric assay. Format: functional, cell-based. The note with it: Homo sapiens.
The species named for data set [12] is Homo sapiens. Nature of the data set: Activation of Luc-fused NFkB (unknown origin) expressed in non-stimulated human THP1 cells assessed as relative luminescence unit at 10^-12 M after 24 hrs by luciferase reporter gene assay (reference value: 100%). Format: cell-based. (In a reporter assay the amount or activity of a reporter protein is the signal.)
Data set [13] is filed under the species Homo sapiens. The experiment in a line: Activation of Luc-fused NFkB (unknown origin) expressed in non-stimulated human THP1 cells assessed as relative luminescence unit at 10^-11 M after 24 hrs by luciferase reporter gene assay (reference value: 100%). Format: cell-based.
Data set [14] is filed under the species Homo sapiens. The experiment in a line: Activation of Luc-fused NFkB (unknown origin) expressed in non-stimulated human THP1 cells assessed as relative luminescence unit at 10^-8 M after 24 hrs by luciferase reporter gene assay (reference value: 100%). Format: cell-based.
Data set [15] is filed under the species Homo sapiens. Nature of the data set: Activation of Luc-fused NFkB (unknown origin) expressed in non-stimulated human THP1 cells assessed as relative luminescence unit at 10^-7 M after 24 hrs by luciferase reporter gene assay (reference value: 100%). Format: cell-based.
For data set [16], the species on record is Homo sapiens. Nature of the data set: Activation of Luc-fused NFkB (unknown origin) expressed in non-stimulated human THP1 cells assessed as relative luminescence unit at 10^-6 M after 24 hrs by luciferase reporter gene assay (reference value: 100%). Format: cell-based.
In data set [17] the test system is THP-1. The experiment in a line: Cytotoxicity against human THP1 cells harboring NFkB-Luc assessed as LDH release at 10'12 M after 24 hrs by spectrophotometric method relative to control. Format: cell-based. The note with it: thp-1, 24 h.
Data set [18] has as its system THP-1. The experiment in a line: Cytotoxicity against human THP1 cells harboring NFkB-Luc assessed as LDH release at 10'11 M after 24 hrs by spectrophotometric method relative to control. Format: cell-based. The following applies: thp-1, 24 h.
Data set [19] relates to THP-1. The experiment in a line: Cytotoxicity against human THP1 cells harboring NFkB-Luc assessed as LDH release at 10'10 M after 24 hrs by spectrophotometric method relative to control. Format: cell-based. The following applies: thp-1, 24 h.
For data set [20], the system named is THP-1. The experiment in a line: Cytotoxicity against human THP1 cells harboring NFkB-Luc assessed as LDH release at 10'9 M after 24 hrs by spectrophotometric method relative to control. Format: cell-based. The following applies: thp-1, 24 h.
In data set [21] the test system is THP-1. Nature of the data set: Cytotoxicity against human THP1 cells harboring NFkB-Luc assessed as LDH release at 10'8 M after 24 hrs by spectrophotometric method relative to control. Format: cell-based. The note with it: thp-1, 24 h.
Data set [22] concerns THP-1. The experiment in a line: Cytotoxicity against human THP1 cells harboring NFkB-Luc assessed as LDH release at 10'7 M after 24 hrs by spectrophotometric method relative to control. Format: cell-based. The following applies: thp-1, 24 h.
For data set [23], the system named is Mus musculus. The experiment in a line: Anti-inflammatory activity in zymosan-induced C57BL/6J mouse peritonitis model assessed as reduction in total cell count in peritoneal cavity at 43 ng, ip pretreated for 30 mins followed by zymosan treatment and redosing of test compound at 1 hr post zymosan addition and measured at 24 hrs post zymosan addition by flow cytometry relative to basal level (reference value: 14). Format: functional.

The test system of data set [24] is Mus musculus. The experiment in a line: Anti-inflammatory activity in zymosan-induced C57BL/6J mouse peritonitis model assessed as PMN leukocytes level in peritoneal cavity at 43 ng, ip pretreated for 30 mins followed by zymosan treatment and redosing of test compound at 1 hr post zymosan addition and measured at 24 hrs post zymosan addition by flow cytometry (reference value: 100%). Format: functional.

The term pIC50 denotes −log10 of the IC50, conventionally taken in molar units. With `CCCCC[C@H](O)/C=C/C=C\C=C\C=C\[C@@H](O)[C@@H](O)CCCC(=O)O` [LIPOXIN A4], the Activity in data set [1] came to 4.3%; in data set [2], 5.7%; in data set [3], 29.6%; in data set [4], 30.3%; in [5], 36.1%; in data set [6], 19.6%. Besides, the Activity in [7] was 29.5%. In data set [8], the viability lay in the range of 95 to 100%. Moreover, the pIC50 in [9] was 8.74; in data set [10] it was 8.77. Moreover, the result in [11] was Active. In the data set on HEK293, the result was inactive.

As usually defined, the Emax is the greatest response seen or fitted, relative to the assay's reference. Take `CCCCC[C@@H](O)c1nc(-c2ccccc2)n(-c2ccccc2)c1/C=C/[C@@H](O)[C@@H](O)CCCC(=O)OC`: the Activity amounted to 1.7% in the data set listed under Homo sapiens [12]; 1.5% in the data set filed under Homo sapiens [13]; 1.2% in the data set filed under Homo sapiens [14]; 0.8% in the data set listed under Homo sapiens [15]; 1.2% in the data set listed under Homo sapiens [16]; 50.3% in data set [1]. Further, the Activity in [2] turned out to be 57.7%; in data set [3], 86.2%; in data set [4] it was 79.1%; in [5], 71.4%; in data set [6], 61.5%; in [7], 78.1%. The viability in data set [8] lay in the range of 95 to 100%. For the same compound, the values for the pIC50 in data set [9] and in [10] were 8.85 and 9.30, respectively. Moreover, the “fold change (FC)” value with THP-1 [17] is on record as 0.5; in the data set with THP-1 [18], 0.5; in the data set on THP-1 [19], 0.6; in the data set with THP-1 [20] it was 0.8; with THP-1 [21] it was 0.9; in the data set with THP-1 [22], 1.1. For the same compound, the “fold change (FC)” value in the data set with Mus musculus [23] stood at 6. The maximal effect (Emax) in the data set on Mus musculus [24] is 45.5%.

For the compound `CCCCC[C@H](O)c1nc(-c2ccccc2)n(-c2ccccc2)c1/C=C/[C@@H](O)[C@@H](O)CCCC(=O)OC`, the Activity in the data set filed under Homo sapiens [12] stood at 1.3%; in the data set filed under Homo sapiens [13], 1.4%; in the data set listed under Homo sapiens [14], 1.2%; in the data set filed under Homo sapiens [15] it was 0.9%; in the data set filed under Homo sapiens [16] it was 1.3%; in [1] it was 57.8%. Also, the Activity in [2] worked out at 67.4%; in data set [3], 138%; in [4], 69.1%; in [5], 68.4%; in data set [6], 69.3%; in data set [7] it was 86.8%. The viability in [8] fell in the range of 95 to 100%. For the same compound, the negative logarithm of the IC50 (pIC50) in data set [9] was 9.00; in data set [10], 7.92. Besides, the “fold change (FC)” value with THP-1 [17] came to 0.6; in the data set on THP-1 [18], 0.6; with THP-1 [19], 0.6; with THP-1 [20], 0.8; with THP-1 [21] it was 1; in the data set with THP-1 [22] it was 1.4. Besides, in the data set on Mus musculus [23], the “fold change (FC)” value was found to be 3. Moreover, the outcome in data set [11] was Active. The result in the data set on HEK293 was inactive. Further, in the data set on Mus musculus [24], the Emax was 18.2%.

For the origin of these results see ChEMBL document CHEMBL4382216, “Asymmetric synthesis and biological evaluation of imidazole- and oxazole-containing synthetic lipoxin A4 mimetics (sLXms)” (Eur J Med Chem, 2019).
